Article PMC9973015 (mBio, 2023)

Tests used:
[1] = tested on: SARS-CoV-2 L50F E166A L167F; type: cell-based
[2] = target: SARS-CoV-2 3CLpro L50F E166A L167F (Severe acute respiratory syndrome coronavirus 2, UniProt P0DTD1, E3429A/L3313F/L3430F); type: biochemical
[3] = tested on: SARS-CoV-2 3CLpro L50F (USA-WA1 background); type: cell-based
[4] = tested on: SARS-CoV-2 3CLpro E166A L167F (USA-WA1 background); type: cell-based; conditions: for EC50: read-out: E166A L167V EC50
[5] = tested on: SARS-CoV-2 3CLpro L50F E166A L167F (USA-WA1 background); type: cell-based; conditions: read-out: L50F E166A L167V EC50
SARS-CoV-2 3CLpro E166V = conditions: cited from earlier work

Row | Structure (SMILES) | EC50 [1] [µM] | low concentration that partially rescues impaired enzymatic activity of the mutants [2] | EC50 [3] [µM] | L50F FC, fold change of EC50 [3] | E166A L167V FC, fold change of EC50 [4] | EC50 [4] [µM] | EC50 [5] [µM] | level of resistance conferred by E166V (SARS-CoV-2 3CLpro E166V)
1 | COc1cccc2[nH]c(C(=O)N[C@@H](CC(C)C)C(=O)N[C@@H](C[C@@H]3CCNC3=O)C(=O)CO)cc12 [PF-00835231] | 4.4 | around 0.05 μM |  |  |  |  |  | 
2 | Cn1cnc(Cn2c(=O)[nH]/c(=N\c3cc4cn(C)nc4cc3Cl)n(Cc3cc(F)c(F)cc3F)c2=O)n1 [Ensitrelvir, ensitrelvir] |  |  | 0.24 | 0.24 [1.1] (0.18–0.31) | 8.0 [38] (2.8–12.7) (n = 4) | 8 | 9.3 | 23
3 | CC(C)(C)[C@H](NC(=O)C(F)(F)F)C(=O)N1C[C@H]2[C@@H]([C@H]1C(=O)N[C@H](C#N)C[C@@H]1CCNC1=O)C2(C)C [Nirmatrelvir, nirmatrelvir] | 6.1 |  | 0.16 |  |  | 1.1 | 3.2 | 100
4 | COc1cccc2[nH]c(C(=O)N3C[C@@H]4CCC[C@@H]4[C@H]3C(=O)N[C@@H](C[C@@H]3CCCNC3=O)C(=O)CO)cc12 [ALG-097161, (1S,3aR,6aS)-N-((S)-4-Hydroxy-3-oxo-1-((S)-2-oxopiperidin-3-yl)butan-2-yl)-2-(4-methoxy-1H-indole-2-carbonyl)octahydrocyclopenta[c]pyrrole-1-carboxamide] |  | […] | 0.98 |  |  | 2.9 | […] | 
